{"source": "paper PMC5624969", "about": "“Coupled reactions by coupled enzymes: alcohol to lactone cascade with alcohol dehydrogenase–cyclohexanone monooxygenase fusions” (Applied Microbiology and Biotechnology, 2017)", "key": {"TmCHMO [1]": {"molecular_target": "T1, TmCHMO (Thermocrispum municipale, UniProt A0A1L1QK40)", "T1 construct": "recombinant from E. coli, gene from pBAD-His-Tag-SUMO-TmCHMO", "T1 sequence (A0A1L1QK40 1-541)": "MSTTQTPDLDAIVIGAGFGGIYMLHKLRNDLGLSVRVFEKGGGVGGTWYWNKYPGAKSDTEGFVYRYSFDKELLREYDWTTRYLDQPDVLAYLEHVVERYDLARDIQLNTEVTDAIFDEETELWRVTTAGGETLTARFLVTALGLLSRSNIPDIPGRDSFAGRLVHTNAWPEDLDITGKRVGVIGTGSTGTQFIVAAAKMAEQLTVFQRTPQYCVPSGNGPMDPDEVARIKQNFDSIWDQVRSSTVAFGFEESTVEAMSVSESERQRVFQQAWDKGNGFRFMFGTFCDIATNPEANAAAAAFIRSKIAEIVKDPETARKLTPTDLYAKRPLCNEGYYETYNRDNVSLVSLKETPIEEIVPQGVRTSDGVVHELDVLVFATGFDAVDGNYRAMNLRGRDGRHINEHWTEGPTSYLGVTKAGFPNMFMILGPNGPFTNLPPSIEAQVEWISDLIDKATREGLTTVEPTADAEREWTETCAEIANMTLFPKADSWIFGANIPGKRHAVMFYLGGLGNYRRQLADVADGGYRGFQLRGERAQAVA", "experiment": "ThermoFAD, release of FAD on unfolding", "format": "binding", "conditions": "10 uM enzyme, +0.5 °C/min"}, "TmCHMO [2]": {"molecular_target": "T1, TmCHMO", "experiment": "inhibition of thioanisole oxidation, NADPH depletion at […] nm", "format": "biochemical", "conditions": "read-out: K I (estimated)"}, "TmCHMO [3]": {"molecular_target": "T1, TmCHMO", "experiment": "inhibition of thioanisole oxidation, NADPH depletion at […] nm", "format": "biochemical", "conditions": "read-out: 50% reduction of activity"}}, "data": [{"compound": "Cc1cc2nc3c(=O)[nH]c(=O)nc-3n(C[C@H](O)[C@H](O)[C@H](O)COP(=O)(O)OP(=O)(O)OC[C@H]3O[C@@H](n4cnc5c(N)ncnc54)[C@H](O)[C@@H]3O)c2cc1C", "note": "[FAD]", "values": [{"measurement": "ThermoFAD, release of FAD on unfolding", "setting": "TmCHMO [1]", "value": "the release of the FAD from TmCHMO upon unfolding could be detected"}]}, {"compound": "OC1CCCCC1", "note": "[cyclohexanol]", "values": [{"measurement": "Ki", "setting": "TmCHMO [2]", "value": "< 2", "unit": "mM"}]}, {"compound": "O=C1CCCCCO1", "note": "[ε-caprolactone]", "values": [{"measurement": "IC50", "setting": "TmCHMO [3]", "value": 66, "unit": "mM"}]}]}
